Measurements reported in US8415378B2, “Isoxazol-3(2H)-one analogs as therapeutic agents” (AstraZeneca AB, priority 2009, dated 2013).

biological target: T1, human Glu-plasminogen (Homo sapiens, UniProt P00747); experiment: Clot-lysis buffer assay; assay type: biochemical
T1 construct: human Glu-plasminogen; purchased Chromogenix, Italy
Procedure: The assay method used for evaluating biological activity of the compounds according to the invention was Clot-lysis buffer assay.
Tested substance were added to the reaction mixture in 10% DMSO. Reaction was started by the addition of thrombin.
Measured according to the Clot-lysis buffer assay described above.

T1 sequence (P00747 20-810 limits assumed): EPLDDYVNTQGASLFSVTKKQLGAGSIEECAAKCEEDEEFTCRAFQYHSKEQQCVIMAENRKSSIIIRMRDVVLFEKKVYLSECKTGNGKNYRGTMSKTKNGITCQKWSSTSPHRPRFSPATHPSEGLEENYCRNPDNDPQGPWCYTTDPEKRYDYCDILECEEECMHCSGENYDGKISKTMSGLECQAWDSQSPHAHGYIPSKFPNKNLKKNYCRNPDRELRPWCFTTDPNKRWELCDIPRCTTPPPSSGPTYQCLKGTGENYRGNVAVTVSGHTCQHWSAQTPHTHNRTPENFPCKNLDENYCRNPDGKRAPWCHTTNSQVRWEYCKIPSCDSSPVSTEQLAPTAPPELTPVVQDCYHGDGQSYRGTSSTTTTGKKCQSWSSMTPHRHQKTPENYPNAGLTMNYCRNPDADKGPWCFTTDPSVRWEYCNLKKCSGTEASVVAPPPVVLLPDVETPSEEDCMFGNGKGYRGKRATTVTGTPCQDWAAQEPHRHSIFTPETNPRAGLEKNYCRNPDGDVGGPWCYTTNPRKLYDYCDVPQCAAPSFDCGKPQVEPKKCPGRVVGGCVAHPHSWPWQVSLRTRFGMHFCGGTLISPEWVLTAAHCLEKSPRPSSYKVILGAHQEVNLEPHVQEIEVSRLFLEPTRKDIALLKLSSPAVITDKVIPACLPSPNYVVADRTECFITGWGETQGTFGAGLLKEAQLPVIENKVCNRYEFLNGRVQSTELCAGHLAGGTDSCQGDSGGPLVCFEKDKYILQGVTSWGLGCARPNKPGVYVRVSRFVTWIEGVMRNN

Compound	IC50 [µM]
O=c1cc([C@@H]2CCN[C@H](c3ccc(Cl)cc3)C2)o[nH]1 [Example 28, 5-((2S,4R)-2-(4-Chlorophenyl)piperidin-4-yl)isoxazol-3(2H)-one]	283
O=c1cc([C@@H]2CCN[C@@H](c3ccc(F)c(F)c3)C2)o[nH]1 (relative stereo) [Example 24, 5-(Trans-2-(3,4-difluorophenyl)piperidin-4-yl)isoxazol-3(2H)-one]	42.8
O=c1cc([C@@H]2CCN[C@H](CC3CCC(F)(F)CC3)C2)o[nH]1 [Example 90, 5-((2R,4R)-2-((4,4-Difluorocyclohexyl)methyl)piperidin-4-yl)isoxazol-3(2H)-one]	102
O=c1cc([C@@H]2CCN[C@H](Cc3ccc(F)cc3F)C2)o[nH]1 [Example 135, 5-((2S,4R)-2-(2,4-Difluorobenzyl)piperidin-4-yl)isoxazol-3(2H)-one]	69.1
O=c1cc([C@@H]2CCN[C@@H](c3cc(F)c(C(F)(F)F)c(F)c3)C2)o[nH]1 (relative stereo) [Example 71, 5-(Trans-2-(3,5-difluoro-4-(trifluoromethyl)phenyl)piperidin-4-yl)isoxazol-3(2H)-one]	11.6
O=c1cc([C@H]2CCN[C@H](c3ccc(Cl)cc3Cl)C2)o[nH]1 [Example 53, 5-((2S,4S)-2-(2,4-Dichlorophenyl)piperidin-4-yl)isoxazol-3(2H)-one]	72.9
CS(=O)(=O)c1ccc(C[C@H]2C[C@H](c3cc(=O)[nH]o3)CCN2)cc1 (relative stereo) [Example 119, 5-(Trans-2-(4-(methylsulfonyl)benzyl)piperidin-4-yl)isoxazol-3(2H)-one]	10.7
CC(C)(C)c1ccc([C@@H]2C[C@H](c3cc(=O)[nH]o3)CCN2)s1 [Example 43, 5-((2S,4R)-2-(5-tert-Butylthiophen-2-yl)piperidin-4-yl)isoxazol-3(2H)-one]	77.5
O=c1cc([C@@H]2CCN[C@H](Cc3cccc(C(F)(F)F)c3)C2)o[nH]1 [Example 108, 5-((2S,4R)-2-(3-(Trifluoromethyl)benzyl)piperidin-4-yl)isoxazol-3(2H)-one]	70.5
O=c1cc([C@@H]2CCN[C@H](Cc3ccc(F)c(F)c3)C2)o[nH]1 [Example 121, 5-((2S,4R)-2-(3,4-Difluorobenzyl)piperidin-4-yl)isoxazol-3(2H)-one]	120
O=c1cc([C@@H]2CCN[C@@H](Cc3c(F)cccc3F)C2)o[nH]1 (relative stereo) [Example 129, 5-(Trans-2-(2,6-difluorobenzyl)piperidin-4-yl)isoxazol-3(2H)-one]	10.2
O=c1cc([C@@H]2CCN[C@H](c3ccc(C(F)(F)F)c(F)c3)C2)o[nH]1 [Example 76, 5-((2S,4R)-2-(3-Fluoro-4-(trifluoromethyl)phenyl)piperidin-4-yl)isoxazol-3(2H)-one]	190
O=c1cc([C@H]2CCN[C@H](C3CCCCC3)C2)o[nH]1 [Example 80, 5-((2S,4S)-2-Cyclohexylpiperidin-4-yl)isoxazol-3(2H)-one]	44
O=c1cc([C@H]2CCN[C@@H](c3ccccc3)C2)o[nH]1 [Example 77, 5-((2R,4S)-2-Phenylpiperidin-4-yl)isoxazol-3(2H)-one]	8
O=c1cc([C@@H]2CCN[C@H](CCc3ccc(F)cc3)C2)o[nH]1 [Example 93, 5-((2R,4R)-2-(4-Fluorophenethyl)piperidin-4-yl)isoxazol-3(2H)-one]	69.8
O=c1cc([C@@H]2CCN[C@H](c3ccc(C(F)(F)F)cc3)C2)o[nH]1 [Example 34, 5-((2S,4R)-2-(4-(Trifluoromethyl)phenyl)piperidin-4-yl)isoxazol-3(2H)-one]	150
Cn1nnc([C@H]2C[C@H](c3cc(=O)[nH]o3)CCN2)n1 (relative stereo) [Example 82, 5-(Trans-2-(2-methyl-2H-tetrazol-5-yl)piperidin-4-yl)isoxazol-3(2H)-one]	20.3

Compounds with a lower IC50, results first:

IC50 [µM]	Compound
2.1	O=c1cc([C@H]2CCN[C@@H](c3ccc(OC(F)(F)F)cc3F)C2)o[nH]1 [Example 58, 5-((2R,4S)-2-(2-Fluoro-4-(trifluoromethoxy)phenyl)piperidin-4-yl)isoxazol-3(2H)-one]
0.7	O=c1cc([C@H]2CCN[C@@H](c3cccc(C(F)(F)F)c3)C2)o[nH]1 [Example 30, 5-((2R,4S)-2-(3-(Trifluoromethyl)phenyl)piperidin-4-yl)isoxazol-3(2H)-one]
5.3	O=c1cc([C@@H]2CCN[C@@H](c3ccc(Cl)c(F)c3)C2)o[nH]1 (relative stereo) [Example 50, 5-(Trans-2-(4-chloro-3-fluorophenyl)piperidin-4-yl)isoxazol-3(2H)-one]
4.3	O=c1cc([C@@H]2CCN[C@@H](Cc3cc(F)c(F)c(F)c3)C2)o[nH]1 (relative stereo) [Example 145, 5-(Trans-2-(3,4,5-trifluorobenzyl)piperidin-4-yl)isoxazol-3(2H)-one]
5	O=c1cc([C@@H]2CCN[C@@H](Cc3cccc(C(F)(F)F)c3)C2)o[nH]1 (relative stereo) [Example 109, 5-(Trans-2-(3-(trifluoromethyl)benzyl)piperidin-4-yl)isoxazol-3(2H)-one]
4.94	O=c1cc([C@@H]2CCN[C@@H](Cc3ccc(F)cc3F)C2)o[nH]1 (relative stereo) [Example 136, 5-(Trans-2-(2,4-difluorobenzyl)piperidin-4-yl)isoxazol-3(2H)-one]
2.7	CC(C)(C)c1cc(C[C@H]2C[C@H](c3cc(=O)[nH]o3)CCN2)cc(C(C)(C)C)c1 (relative stereo) [Example 148, 5-(Trans-2-(3,5-di-tert-butylbenzyl)piperidin-4-yl)isoxazol-3(2H)-one]
5.5	O=c1cc([C@@H]2CCN[C@@H](Cc3ccccc3C(F)(F)F)C2)o[nH]1 (relative stereo) [Example 112, 5-(Trans-2-(2-(trifluoromethyl)benzyl)piperidin-4-yl)isoxazol-3(2H)-one]
1.5	O=c1cc([C@H]2CCN[C@@H](c3ccc(C(F)(F)F)nc3)C2)o[nH]1 [Example 40, 5-((2R,4S)-2-(6-(Trifluoromethyl)pyridin-3-yl)piperidin-4-yl)isoxazol-3(2H)-one]
3.1	O=c1cc([C@H]2CCN[C@@H](c3ccc(C(F)(F)F)c(F)c3)C2)o[nH]1 [Example 75, 5-((2R,4S)-2-(3-Fluoro-4-(trifluoromethyl)phenyl)piperidin-4-yl)isoxazol-3(2H)-one]
1.1	O=c1cc([C@H]2CCN[C@@H](Cc3cc(F)cc(F)c3)C2)o[nH]1 [Example 130, 5-((2R,4S)-2-(3,5-Difluorobenzyl)piperidin-4-yl)isoxazol-3(2H)-one]
2.35	O=c1cc([C@H]2CCN[C@@H](c3ccc(Cl)cc3F)C2)o[nH]1 [Example 45, 5-((2R,4S)-2-(4-Chloro-2-fluorophenyl)piperidin-4-yl)isoxazol-3(2H)-one]
4.4	O=c1cc([C@H]2CCN[C@H](Cc3ccc(F)c(F)c3)C2)o[nH]1 [Example 122, 5-((2S,4S)-2-(3,4-Difluorobenzyl)piperidin-4-yl)isoxazol-3(2H)-one]
5.9	O=c1cc([C@@H]2CCN[C@@H](CC3CCC(F)(F)CC3)C2)o[nH]1 (relative stereo) [Example 91, 5-(Trans-2-((4,4-difluorocyclohexyl)methyl)piperidin-4-yl)isoxazol-3(2H)-one]
